Experimental data reported in patent publication EP4722207A1, “OXOISOINDOLINYL-SUBSTITUTED TETRAHYDROPYRIMIDINEDIONE DERIVATIVE AND USE THEREOF” (Gluetacs Therapeutics (Shanghai) Co., Ltd., priority 2023, dated 2024).

Assays:
MGC803 = test: Cell viability assay (CellTiter-Meiluncell Luminescent), tumor cell proliferation, MGC803; details: Homo sapiens, MGC-803, 96 h, read-out: inhibitory activity (IC50, nM) against tumor cells proliferation, MGC803
Description: (§1) On the following day, the test compounds of the present disclosure were subjected to serial dilution. […] Subsequently, 0.5 µL of the test compound dilution was transferred into the 96-well plate containing the cells, with each well containing 100 µL of cell culture medium. […] Into the 96-well plate, the diluted test compounds and corresponding detection reagents were added, resulting in final test compound concentrations of 500 nM and 10 nM, respectively.
(§2) After the cells were treated with the compounds of the present disclosure for a specified period, the cell viability assay reagent was added to the culture medium according to the kit's instructions to determine cell viability. […] All controls were treated using the same procedure as the compounds of the present disclosure. The growth inhibition curves for the compounds of the present disclosure were plotted using Prism GraphPad software, and the IC50 values were calculated therefrom.

IKZF3 = target: T1, IKZF3 (Homo sapiens, UniProt Q96SW2+Q9UKT9); test: Western-blot assay, substrate protein degradation in hPBMCs: IKZF3; type: cell-based; details: compounds at 50 nM and 500 nM, 24 hours
T1 construct: effects of the compounds of the present disclosure on the expression of target proteins in cells; endogenous in cells; host or cells: human PBMCs (hPBMCs)

GSPT1 = target: T2, GSPT1 (Homo sapiens, UniProt P15170+Q96SW2); test: Western-blot assay, substrate protein degradation in hPBMCs: GSPT1; type: cell-based; details: compounds at 50 nM and 500 nM, 24 hours
T2 construct: effects of the compounds of the present disclosure on the expression of target proteins in cells; endogenous in cells; host or cells: human PBMCs (hPBMCs)

IKZF2 = target: T3, IKZF2 (Homo sapiens, UniProt Q96SW2+Q9UKS7); test: Western-blot assay, substrate protein degradation in hPBMCs: IKZF2; type: cell-based; details: compounds at 50 nM and 500 nM, 24 hours
T3 construct: effects of the compounds of the present disclosure on the expression of target proteins in cells; endogenous in cells; host or cells: human PBMCs (hPBMCs)

CK1α = target: T4, CK1α (Homo sapiens, UniProt P48729+Q96SW2); test: Western-blot assay, substrate protein degradation in hPBMCs: CK1α; type: cell-based; details: compounds at 50 nM and 500 nM, 24 hours
T4 construct: effects of the compounds of the present disclosure on the expression of target proteins in cells; endogenous in cells; host or cells: human PBMCs (hPBMCs)

WEE1 = target: T5, WEE1 (Homo sapiens, UniProt P30291+Q96SW2); test: Western-blot assay, substrate protein degradation in hPBMCs: WEE1; type: cell-based; details: compounds at 50 nM and 500 nM, 24 hours
T5 construct: effects of the compounds of the present disclosure on the expression of target proteins in cells; endogenous in cells; host or cells: human PBMCs (hPBMCs)

MM.1S = test: Cell viability assay (CellTiter-Meiluncell Luminescent), tumor cell proliferation, MM.1S; details: Homo sapiens, MM1.S, 96 h, read-out: inhibitory activity (IC50, nM) against tumor cells proliferation, MM.1S
IKZF1 = target: T6, IKZF1 (Homo sapiens, UniProt Q13422+Q96SW2); test: Western-blot assay, substrate protein degradation in hPBMCs: IKZF1; type: cell-based; details: compounds at 50 nM and 500 nM, 24 hours
T6 construct: effects of the compounds of the present disclosure on the expression of target proteins in cells; endogenous in cells; host or cells: human PBMCs (hPBMCs)

Jurkat = test: Cell viability assay (CellTiter-Meiluncell Luminescent), tumor cell proliferation, Jurkat; details: Homo sapiens, 96 h, read-out: inhibitory activity (IC50, nM) against tumor cells proliferation, Jurkat
Description: as §1, §2

T5 sequence (P30291 whole entry): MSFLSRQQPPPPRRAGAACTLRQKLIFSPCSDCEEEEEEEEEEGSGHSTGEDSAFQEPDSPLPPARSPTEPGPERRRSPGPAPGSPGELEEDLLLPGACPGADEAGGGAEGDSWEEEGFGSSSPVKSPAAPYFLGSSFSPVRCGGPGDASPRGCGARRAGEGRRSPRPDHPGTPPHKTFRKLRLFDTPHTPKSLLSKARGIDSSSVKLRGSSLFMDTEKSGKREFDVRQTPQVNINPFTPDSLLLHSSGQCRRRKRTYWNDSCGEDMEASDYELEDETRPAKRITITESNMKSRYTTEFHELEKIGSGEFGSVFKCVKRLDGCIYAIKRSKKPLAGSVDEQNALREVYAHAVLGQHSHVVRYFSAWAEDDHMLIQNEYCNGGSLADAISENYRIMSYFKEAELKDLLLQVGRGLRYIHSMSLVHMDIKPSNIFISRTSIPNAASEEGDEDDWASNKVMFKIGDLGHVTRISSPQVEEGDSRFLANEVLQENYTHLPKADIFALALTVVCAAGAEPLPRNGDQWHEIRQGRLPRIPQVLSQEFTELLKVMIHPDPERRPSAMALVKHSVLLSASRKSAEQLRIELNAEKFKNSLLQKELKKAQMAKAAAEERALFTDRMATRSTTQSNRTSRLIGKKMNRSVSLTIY
T5 sequence (Q96SW2 whole entry): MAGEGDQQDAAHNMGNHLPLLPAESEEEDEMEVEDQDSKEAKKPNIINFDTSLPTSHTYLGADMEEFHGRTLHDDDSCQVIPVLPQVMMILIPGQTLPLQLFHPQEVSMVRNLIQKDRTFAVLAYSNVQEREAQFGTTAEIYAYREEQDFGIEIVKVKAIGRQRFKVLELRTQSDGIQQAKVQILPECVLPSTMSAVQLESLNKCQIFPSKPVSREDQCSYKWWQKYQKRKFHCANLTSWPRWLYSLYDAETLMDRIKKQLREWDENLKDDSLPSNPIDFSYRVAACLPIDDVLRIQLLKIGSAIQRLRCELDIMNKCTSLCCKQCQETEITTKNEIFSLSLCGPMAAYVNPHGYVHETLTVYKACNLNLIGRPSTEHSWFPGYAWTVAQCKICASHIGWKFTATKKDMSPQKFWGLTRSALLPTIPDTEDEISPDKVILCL
T5 sequence (Q16531 whole entry partner): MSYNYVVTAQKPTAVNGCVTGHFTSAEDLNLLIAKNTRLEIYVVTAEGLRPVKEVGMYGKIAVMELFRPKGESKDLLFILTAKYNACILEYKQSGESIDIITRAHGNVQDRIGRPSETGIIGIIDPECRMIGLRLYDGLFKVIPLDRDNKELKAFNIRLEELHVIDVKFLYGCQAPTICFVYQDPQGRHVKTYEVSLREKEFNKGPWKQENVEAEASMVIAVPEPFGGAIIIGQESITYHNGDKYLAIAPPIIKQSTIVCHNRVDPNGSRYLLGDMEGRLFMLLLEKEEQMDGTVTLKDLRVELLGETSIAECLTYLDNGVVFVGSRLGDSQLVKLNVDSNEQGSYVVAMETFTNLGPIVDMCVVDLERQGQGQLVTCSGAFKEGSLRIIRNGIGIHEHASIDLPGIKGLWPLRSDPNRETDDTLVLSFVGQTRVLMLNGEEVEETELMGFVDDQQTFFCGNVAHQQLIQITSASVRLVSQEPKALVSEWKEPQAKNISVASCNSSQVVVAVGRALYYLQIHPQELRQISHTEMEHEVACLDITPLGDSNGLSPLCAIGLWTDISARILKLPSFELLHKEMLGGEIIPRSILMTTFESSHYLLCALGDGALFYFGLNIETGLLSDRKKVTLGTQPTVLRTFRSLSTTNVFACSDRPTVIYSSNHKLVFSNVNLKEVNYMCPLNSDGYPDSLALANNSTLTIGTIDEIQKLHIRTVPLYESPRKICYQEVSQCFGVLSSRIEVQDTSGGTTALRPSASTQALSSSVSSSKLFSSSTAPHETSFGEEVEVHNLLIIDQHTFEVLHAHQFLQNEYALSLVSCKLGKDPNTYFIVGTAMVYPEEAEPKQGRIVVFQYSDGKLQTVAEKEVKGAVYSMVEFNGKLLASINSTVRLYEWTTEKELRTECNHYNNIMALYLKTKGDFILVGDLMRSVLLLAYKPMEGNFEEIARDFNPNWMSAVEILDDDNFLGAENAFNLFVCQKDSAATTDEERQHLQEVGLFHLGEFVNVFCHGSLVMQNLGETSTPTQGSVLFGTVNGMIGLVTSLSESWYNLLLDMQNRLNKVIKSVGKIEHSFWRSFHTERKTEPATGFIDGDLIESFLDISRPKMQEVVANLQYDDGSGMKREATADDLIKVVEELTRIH
T2 sequence (P15170 whole entry): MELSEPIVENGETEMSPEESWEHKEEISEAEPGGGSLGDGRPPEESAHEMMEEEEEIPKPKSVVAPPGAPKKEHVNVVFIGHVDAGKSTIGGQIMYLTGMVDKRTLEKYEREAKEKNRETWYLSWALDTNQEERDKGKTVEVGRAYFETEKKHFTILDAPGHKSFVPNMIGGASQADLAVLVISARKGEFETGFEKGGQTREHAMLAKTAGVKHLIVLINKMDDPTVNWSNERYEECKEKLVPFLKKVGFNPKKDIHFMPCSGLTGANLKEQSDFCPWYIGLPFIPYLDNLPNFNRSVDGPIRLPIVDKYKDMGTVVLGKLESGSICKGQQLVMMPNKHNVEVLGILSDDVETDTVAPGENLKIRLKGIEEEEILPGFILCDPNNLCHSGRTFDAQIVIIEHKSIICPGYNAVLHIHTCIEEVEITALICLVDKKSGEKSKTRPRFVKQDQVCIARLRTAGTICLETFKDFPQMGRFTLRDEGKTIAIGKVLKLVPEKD
T2 sequence (Q96SW2 whole entry): as the sequence (Q96SW2 whole entry) above
T2 sequence (Q16531 whole entry partner): as the sequence (Q16531 whole entry partner) above
T6 sequence (Q13422 whole entry): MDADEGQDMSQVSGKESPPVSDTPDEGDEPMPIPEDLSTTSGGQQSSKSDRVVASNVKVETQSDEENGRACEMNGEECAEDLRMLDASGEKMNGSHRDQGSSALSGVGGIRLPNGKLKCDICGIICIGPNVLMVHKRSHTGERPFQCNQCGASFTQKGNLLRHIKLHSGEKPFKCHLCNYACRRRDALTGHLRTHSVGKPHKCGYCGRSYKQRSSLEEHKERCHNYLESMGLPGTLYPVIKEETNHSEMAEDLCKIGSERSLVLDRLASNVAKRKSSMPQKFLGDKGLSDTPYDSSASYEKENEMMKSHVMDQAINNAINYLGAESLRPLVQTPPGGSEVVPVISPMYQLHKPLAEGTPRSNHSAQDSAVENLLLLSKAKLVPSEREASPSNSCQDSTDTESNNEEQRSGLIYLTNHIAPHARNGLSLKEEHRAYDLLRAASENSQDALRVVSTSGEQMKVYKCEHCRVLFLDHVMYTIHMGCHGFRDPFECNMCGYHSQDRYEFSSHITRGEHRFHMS
T6 sequence (Q96SW2 whole entry): as the sequence (Q96SW2 whole entry) above
T6 sequence (Q16531 whole entry partner): as the sequence (Q16531 whole entry partner) above
T1 sequence (Q9UKT9 whole entry): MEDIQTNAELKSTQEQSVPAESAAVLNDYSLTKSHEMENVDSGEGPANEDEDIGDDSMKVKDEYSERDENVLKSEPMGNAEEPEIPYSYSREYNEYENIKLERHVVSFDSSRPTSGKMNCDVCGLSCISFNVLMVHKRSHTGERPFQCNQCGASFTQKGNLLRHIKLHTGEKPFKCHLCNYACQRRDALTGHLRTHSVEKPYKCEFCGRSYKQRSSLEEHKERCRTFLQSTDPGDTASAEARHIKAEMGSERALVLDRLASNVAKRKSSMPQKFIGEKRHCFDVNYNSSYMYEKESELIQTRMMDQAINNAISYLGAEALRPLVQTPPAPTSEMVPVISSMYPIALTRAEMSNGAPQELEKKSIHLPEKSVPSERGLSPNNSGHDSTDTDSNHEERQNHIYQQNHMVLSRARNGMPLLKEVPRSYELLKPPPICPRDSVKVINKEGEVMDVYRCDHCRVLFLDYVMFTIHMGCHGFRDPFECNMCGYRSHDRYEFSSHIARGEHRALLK
T1 sequence (Q96SW2 whole entry): as the sequence (Q96SW2 whole entry) above
T1 sequence (Q16531 whole entry partner): as the sequence (Q16531 whole entry partner) above
T4 sequence (P48729 whole entry): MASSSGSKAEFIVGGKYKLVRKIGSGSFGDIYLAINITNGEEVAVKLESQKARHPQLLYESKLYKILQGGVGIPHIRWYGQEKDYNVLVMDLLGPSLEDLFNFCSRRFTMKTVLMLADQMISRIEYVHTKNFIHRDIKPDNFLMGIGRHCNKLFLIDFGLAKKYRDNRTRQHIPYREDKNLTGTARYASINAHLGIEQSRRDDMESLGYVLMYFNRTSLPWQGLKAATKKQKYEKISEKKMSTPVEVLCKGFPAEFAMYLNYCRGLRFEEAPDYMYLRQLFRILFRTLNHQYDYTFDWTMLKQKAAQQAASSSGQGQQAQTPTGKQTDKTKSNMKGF
T4 sequence (Q96SW2 whole entry): as the sequence (Q96SW2 whole entry) above
T4 sequence (Q16531 whole entry partner): as the sequence (Q16531 whole entry partner) above

| SMILES | IC50 (MGC803) | IKZF3 substrate protein remaining % (IKZF3) | GSPT1 substrate protein remaining % (GSPT1) | IKZF2 substrate protein remaining % (IKZF2) | CK1α substrate protein remaining % (CK1α) | WEE1 substrate protein remaining % (WEE1) | IC50 (MM.1S) | IKZF1 substrate protein remaining % (IKZF1) | IC50 (Jurkat) |
| --- | --- | --- | --- | --- | --- | --- | --- | --- | --- |
| O=C1CCN(N2Cc3cc(CN4CCN(c5cccc(Cl)c5Cl)CC4)ccc3C2=O)C(=O)N1 [GT-04853, 1-(5-((4-(2,3-dichlorophenyl)piperazin-1-yl)methyl)-1-oxoisoindolin-2-yl)dihydropyrimidine-2,4(1H,3H)-dione] | 500 to 1000 nM | B ("B" is defined as 80%< substrate protein remaining %≤ 100%) | A ("A" is defined as 0% ≤ substrate protein remaining % ≤ 80%) | A ("A" is defined as 0% ≤ substrate protein remaining % ≤ 80%) | B ("B" is defined as 80%< substrate protein remaining %≤ 100%) | A ("A" is defined as 0% ≤ substrate protein remaining % ≤ 80%) | 100 to 300 nM | A ("A" is defined as 0% ≤ substrate protein remaining % ≤ 80%) | – |
| O=C1CCN(N2Cc3cc(CN4CCN(c5cccc6sccc56)CC4)ccc3C2=O)C(=O)N1 [GT-04866, 1-(5-((4-(benzo[b]thiophen-4-yl)piperazin-1-yl)methyl)-1-oxoisoindolin-2-yl)dihydropyrimidine-2,4(1H,3H)-dione] | 300 to 500 nM | B ("B" is defined as 80%< substrate protein remaining %≤ 100%) | A ("A" is defined as 0% ≤ substrate protein remaining % ≤ 80%) | B ("B" is defined as 80%< substrate protein remaining %≤ 100%) | B ("B" is defined as 80%< substrate protein remaining %≤ 100%) | A ("A" is defined as 0% ≤ substrate protein remaining % ≤ 80%) | 100 to 300 nM | A ("A" is defined as 0% ≤ substrate protein remaining % ≤ 80%) | 300 to 500 nM |
| O=C1CCN(N2Cc3cc(CN4CC=C(c5cccs5)CC4)ccc3C2=O)C(=O)N1 [GT-04868, 1-(1-oxo-5-((4-(thiophen-2-yl)-3,6-dihydropyridin-1(2H)-yl)methyl)isoindolin-2-yl)dihydropyrimidine-2,4(1H,3H)-dione] | 300 to 500 nM | B ("B" is defined as 80%< substrate protein remaining %≤ 100%) | A ("A" is defined as 0% ≤ substrate protein remaining % ≤ 80%) | B ("B" is defined as 80%< substrate protein remaining %≤ 100%) | A ("A" is defined as 0% ≤ substrate protein remaining % ≤ 80%) | A ("A" is defined as 0% ≤ substrate protein remaining % ≤ 80%) | 100 to 300 nM | A ("A" is defined as 0% ≤ substrate protein remaining % ≤ 80%) | 300 to 500 nM |
| Cc1ccc(C2=CCN(Cc3ccc4c(c3)CN(N3CCC(=O)NC3=O)C4=O)CC2)s1 [GT-04869, 1-(5-((4-(5-methylthiophen-2-yl)-3,6-dihydropyridin-1(2H)-yl)methyl)-1-oxoisoindolin-2-yl)dihydropyrimidine-2,4(1H,3H)-dione] | 300 to 500 nM | A ("A" is defined as 0% ≤ substrate protein remaining % ≤ 80%) | A ("A" is defined as 0% ≤ substrate protein remaining % ≤ 80%) | A ("A" is defined as 0% ≤ substrate protein remaining % ≤ 80%) | B ("B" is defined as 80%< substrate protein remaining %≤ 100%) | A ("A" is defined as 0% ≤ substrate protein remaining % ≤ 80%) | 50 to 100 nM | A ("A" is defined as 0% ≤ substrate protein remaining % ≤ 80%) | 300 to 500 nM |
| Cc1ccsc1C1=CCN(Cc2ccc3c(c2)CN(N2CCC(=O)NC2=O)C3=O)CC1 [GT-04870, 1-(5-((4-(3-methylthiophen-2-yl)-3,6-dihydropyridin-1(2H)-yl)methyl)-1-oxoisoindolin-2-yl)dihydropyrimidine-2,4(1H,3H)-dione] | 100 to 300 nM | A ("A" is defined as 0% ≤ substrate protein remaining % ≤ 80%) | A ("A" is defined as 0% ≤ substrate protein remaining % ≤ 80%) | A ("A" is defined as 0% ≤ substrate protein remaining % ≤ 80%) | B ("B" is defined as 80%< substrate protein remaining %≤ 100%) | A ("A" is defined as 0% ≤ substrate protein remaining % ≤ 80%) | 50 to 100 nM | A ("A" is defined as 0% ≤ substrate protein remaining % ≤ 80%) | 100 to 300 nM |
| O=C1CCN(N2Cc3cc(CN4CC=C(c5ccsc5)CC4)ccc3C2=O)C(=O)N1 [GT-04871, 1-(1-oxo-5-((4-(thiophen-3-yl)-3,6-dihydropyridin-1(2H)-yl)methyl)isoindolin-2-yl)dihydropyrimidine-2,4(1H,3H)-dione] | 300 to 500 nM | B ("B" is defined as 80%< substrate protein remaining %≤ 100%) | A ("A" is defined as 0% ≤ substrate protein remaining % ≤ 80%) | B ("B" is defined as 80%< substrate protein remaining %≤ 100%) | B ("B" is defined as 80%< substrate protein remaining %≤ 100%) | A ("A" is defined as 0% ≤ substrate protein remaining % ≤ 80%) | 100 to 300 nM | A ("A" is defined as 0% ≤ substrate protein remaining % ≤ 80%) | 300 to 500 nM |
| Cc1cscc1C1=CCN(Cc2ccc3c(c2)CN(N2CCC(=O)NC2=O)C3=O)CC1 [GT-04872, 1-(5-((4-(4-methylthiophen-3-yl)-3,6-dihydropyridin-1(2H)-yl)methyl)-1-oxoisoindolin-2-yl)dihydropyrimidine-2,4(1H,3H)-dione] | 100 to 300 nM | B ("B" is defined as 80%< substrate protein remaining %≤ 100%) | A ("A" is defined as 0% ≤ substrate protein remaining % ≤ 80%) | B ("B" is defined as 80%< substrate protein remaining %≤ 100%) | B ("B" is defined as 80%< substrate protein remaining %≤ 100%) | A ("A" is defined as 0% ≤ substrate protein remaining % ≤ 80%) | 10 to 50 nM | A ("A" is defined as 0% ≤ substrate protein remaining % ≤ 80%) | 100 to 300 nM |
| Cc1cc(C2=CCN(Cc3ccc4c(c3)CN(N3CCC(=O)NC3=O)C4=O)CC2)cs1 [GT-04873, 1-(5-((4-(5-methylthiophen-3-yl)-3,6-dihydropyridin-1(2H)-yl)methyl)-1-oxoisoindolin-2-yl)dihydropyrimidine-2,4(1H,3H)-dione] | 100 to 300 nM | A ("A" is defined as 0% ≤ substrate protein remaining % ≤ 80%) | A ("A" is defined as 0% ≤ substrate protein remaining % ≤ 80%) | B ("B" is defined as 80%< substrate protein remaining %≤ 100%) | B ("B" is defined as 80%< substrate protein remaining %≤ 100%) | A ("A" is defined as 0% ≤ substrate protein remaining % ≤ 80%) | 50 to 100 nM | A ("A" is defined as 0% ≤ substrate protein remaining % ≤ 80%) | 100 to 300 nM |
| O=C1CCN(N2Cc3cc(CN4CCN(C(c5ccccc5)c5ccccn5)CC4)ccc3C2=O)C(=O)N1 (stereo not shown) [GT-04890, 1-(1-oxo-5-((4-(phenyl(pyridin-2-yl)methyl)piperazin-1-yl)methyl)isoindolin-2-yl)dihydropyrimidine-2,4(1H,3H)-dione] | 500 to 1000 nM | B ("B" is defined as 80%< substrate protein remaining %≤ 100%) | A ("A" is defined as 0% ≤ substrate protein remaining % ≤ 80%) | A ("A" is defined as 0% ≤ substrate protein remaining % ≤ 80%) | B ("B" is defined as 80%< substrate protein remaining %≤ 100%) | B ("B" is defined as 80%< substrate protein remaining %≤ 100%) | 100 to 300 nM | A ("A" is defined as 0% ≤ substrate protein remaining % ≤ 80%) | – |
